Measurements reported in patent US10588317B2, “Isoxazoline-substituted benzamides and analogues as insecticides” (priority 2015, dated 2020).

Legend:
Assay type in all cases: in vivo
[1] = test system: Plutella xylostella; test: Plutella xylostella (diamond back moth), artificial diet; conditions: 120 h, application rate 200 ppm, L2 larvae, 5 days after infestation, read-out: effect in at least one of the two categories (mortality or growth inhibition)
How it was run: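 Artificial diet in 24-well plates treated with aqueous test solutions made from 10'000 ppm DMSO stocks, dried, then infested with L2 larvae (10 to 15 per well). Mortality and growth inhibition scored against untreated samples 5 days after infestation; activity cut-off at least 80% in either category at 200 ppm.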

[2] = test system: Spodoptera littoralis; test: Spodoptera littoralis (Egyptian cotton leaf worm), uptake by lettuce roots from agar; conditions: 144 h, read-out: effect in at least one of the three categories (mortality, anti-feeding, or growth inhibition)
Description: Test compounds were applied by pipette from 10'000 ppm DMSO stock solutions into 24-well plates and mixed with agar. Lettuce seeds were placed onto the agar and the multi well plate was closed by another plate which contained also agar. After 7 days the compound was absorbed by the roots and the lettuce grew into the lid plate. The lettuce leaves were then cut off into the lid plate. Spodoptera eggs were pipetted through a plastic stencil onto a humid gel blotting paper and the lid plate was closed with it. The samples were assessed for mortality, anti-feedant effect and growth inhibition in comparison to untreated samples 6 days after infestation.
The following compounds gave an effect of at least 80% in at least one of the three categories (mortality, anti-feeding, or growth inhibition) at a test rate of 12.5 ppm: […]

[3] = test system: Tetranychus urticae; test: Tetranychus urticae (two-spotted spider mite): feeding/contact activity; conditions: 192 h, application rate 200 ppm, mixed population (mobile stages), 8 days after infestation, read-out: mortality
Experimental: Bean leaf discs on agar in 24-well microtiter plates were sprayed with aqueous test solutions prepared from 10'000 ppm DMSO stock solutions. After drying the leaf discs were infested with a mite population of mixed ages. The samples were assessed for mortality on mixed population (mobile stages) 8 days after infestation.

[4] = test system: Myzus persicae; test: Myzus persicae (green peach aphid): feeding/contact activity; conditions: 144 h, application rate 200 ppm, aphid population of mixed ages, 6 days after infestation, read-out: mortality
Experimental: (§1) Sunflower leaf discs were placed onto agar in a 24-well microtiter plate and sprayed with aqueous test solutions prepared from 10'000 ppm DMSO stock solutions. After drying, the leaf discs were infested with an aphid population of mixed ages. The samples were assessed for mortality 6 days after infestation.

[5] = test system: Spodoptera littoralis; test: Spodoptera littoralis (Egyptian cotton leaf worm), sprayed cotton leaf discs; conditions: foliar, 72 h, application rate 200 ppm, L1 larvae, 3 days after infestation, read-out: control (mortality, anti-feeding effect, growth inhibition)
How it was run: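 Cotton leaf discs on agar sprayed with aqueous test solutions made from 10'000 ppm DMSO stock; after drying, infested with five L1 larvae. Mortality, anti-feeding and growth inhibition scored versus untreated samples 3 days after infestation; control counted when any category exceeds untreated.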

[6] = test system: Thrips tabaci; test: Thrips tabaci (onion thrips): feeding/contact activity; conditions: 144 h, application rate 200 ppm, Thrips population of mixed ages, 6 days after infestation, read-out: mortality
Experimental: as §1, with “on” for “onto”, “in” for “in a”, “plates” for “plate”, “drying” for “drying,”, “a Thrips” for “an aphid”

[7] = test system: Diabrotica balteata; test: Diabrotica balteata (corn root worm), sprayed maize sprouts; conditions: 96 h, application rate 200 ppm, L2 larvae, 4 days after infestation, read-out: effect in at least one of the two categories (mortality or growth inhibition)
How it was run: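 Maize sprouts on agar sprayed with aqueous dilutions of DMSO stocks, dried, then infested with L2 larvae (6–10 per well). Mortality and growth inhibition scored against untreated controls 4 days after infestation, at 200 ppm application rate.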

[8] = test system: Euschistus heros; test: Euschistus heros (neotropical brown stink bug), sprayed soybean leaves; conditions: 120 h, application rate 200 ppm, N2 nymphs, 5 days after infestation, read-out: effect in at least one of the two categories (mortality or growth inhibition)
How it was run: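 Soybean leaves on agar sprayed with aqueous dilutions of DMSO stocks, dried, then infested with N2 nymphs. Mortality and growth inhibition scored against untreated samples 5 days after infestation; application rate 200 ppm.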

Cc1cc(C2=NO[C@@](c3cc(Cl)cc(Cl)c3)(C(F)(F)F)C2)ccc1C(=O)NC1CON(S(=O)(=O)N(C)C)C1 (stereo partly shown) [Compound A41]
≥ 80%: percent effect (mortality or growth inhibition) at 200 ppm [1] | percent control (mortality, anti-feedant effect or growth inhibition) at 12.5 ppm [2] | mortality at 200 ppm [3] | mortality at 200 ppm [4] | mortality at 200 ppm [5] | mortality at 200 ppm [6] | percent effect (mortality or growth inhibition) at 200 ppm [7] | percent effect (mortality or growth inhibition) at 200 ppm [8]

Cc1cc(C2=NO[C@@](c3cc(Cl)c(F)c(Cl)c3)(C(F)(F)F)C2)ccc1C(=O)NC1CON(S(=O)(=O)N(C)C)C1 (stereo partly shown) [Compound A10]
≥ 80%: percent effect (mortality or growth inhibition) at 200 ppm [1] | percent control (mortality, anti-feedant effect or growth inhibition) at 12.5 ppm [2] | mortality at 200 ppm [3] | mortality at 200 ppm [4] | mortality at 200 ppm [5] | mortality at 200 ppm [6] | percent effect (mortality or growth inhibition) at 200 ppm [7] | percent effect (mortality or growth inhibition) at 200 ppm [8]

Cc1cc(C2=NO[C@@](c3cc(Cl)c(F)c(Cl)c3)(C(F)(F)F)C2)ccc1C(=O)N[C@@H]1CON(S(C)(=O)=O)C1 (single isomer, unassigned) [Compound A12]
≥ 80%: percent effect (mortality or growth inhibition) at 200 ppm [1] | percent control (mortality, anti-feedant effect or growth inhibition) at 12.5 ppm [2] | mortality at 200 ppm [3] | mortality at 200 ppm [4] | mortality at 200 ppm [5] | mortality at 200 ppm [6] | percent effect (mortality or growth inhibition) at 200 ppm [7] | percent effect (mortality or growth inhibition) at 200 ppm [8]

CCS(=O)(=O)N1CC(NC(=O)c2ccc(C3=NO[C@@](c4cc(Cl)cc(C(F)(F)F)c4)(C(F)(F)F)C3)cc2C)CO1 (stereo partly shown) [Compound A42]
≥ 80%: percent effect (mortality or growth inhibition) at 200 ppm [1] | percent control (mortality, anti-feedant effect or growth inhibition) at 12.5 ppm [2] | mortality at 200 ppm [3] | mortality at 200 ppm [4] | mortality at 200 ppm [5] | mortality at 200 ppm [6] | percent effect (mortality or growth inhibition) at 200 ppm [7] | percent effect (mortality or growth inhibition) at 200 ppm [8]

CNS(=O)(=O)N1C[C@@H](NC(=O)c2ccc(C3=NO[C@@](c4cc(Cl)c(F)c(Cl)c4)(C(F)(F)F)C3)cc2C)CO1 [Compound A137, 4-[(5S)-5-(3,5-dichloro-4-fluoro-phenyl)-5-(trifluoromethyl)-4H-isoxazol-3-yl]-2-methyl-N-[(4R)-2-(methylsulfamoyl)isoxazolidin-4-yl]benzamide]
≥ 80%: percent effect (mortality or growth inhibition) at 200 ppm [1] | percent control (mortality, anti-feedant effect or growth inhibition) at 12.5 ppm [2] | mortality at 200 ppm [3] | mortality at 200 ppm [4] | mortality at 200 ppm [5] | mortality at 200 ppm [6] | percent effect (mortality or growth inhibition) at 200 ppm [7] | percent effect (mortality or growth inhibition) at 200 ppm [8]

CS(=O)(=O)N1C[C@@H](NC(=O)c2ccc(C3=NO[C@@](c4cc(Cl)cc(C(F)(F)F)c4)(C(F)(F)F)C3)cc2Cl)CO1 [Compound A123]
≥ 80%: percent effect (mortality or growth inhibition) at 200 ppm [1] | percent control (mortality, anti-feedant effect or growth inhibition) at 12.5 ppm [2] | mortality at 200 ppm [3] | mortality at 200 ppm [4] | mortality at 200 ppm [5] | mortality at 200 ppm [6] | percent effect (mortality or growth inhibition) at 200 ppm [7] | percent effect (mortality or growth inhibition) at 200 ppm [8]

CS(=O)(=O)N1CC(NC(=O)c2ccc(C3=NO[C@@](c4cc(Cl)c(F)c(Cl)c4)(C(F)(F)F)C3)cc2Cl)CO1 (stereo partly drawn) [Compound A19, 2-chloro-4-[(5S)-5-(3,5-dichloro-4-fluoro-phenyl)-5-(trifluoromethyl)-4H-isoxazol-3-yl]-N-(2-methylsulfonylisoxazolidin-4-yl)benzamide]
≥ 80%: percent effect (mortality or growth inhibition) at 200 ppm [1] | percent control (mortality, anti-feedant effect or growth inhibition) at 12.5 ppm [2] | mortality at 200 ppm [3] | mortality at 200 ppm [4] | mortality at 200 ppm [5] | mortality at 200 ppm [6] | percent effect (mortality or growth inhibition) at 200 ppm [7] | percent effect (mortality or growth inhibition) at 200 ppm [8]

Cc1cc(C2=NO[C@@](c3cc(Cl)c(F)c(Cl)c3)(C(F)(F)F)C2)ccc1C(=O)N[C@H]1CON(S(=O)(=O)N(C)C)C1 (single isomer, unassigned) [Compound A143]
≥ 80%: percent effect (mortality or growth inhibition) at 200 ppm [1] | percent control (mortality, anti-feedant effect or growth inhibition) at 12.5 ppm [2] | mortality at 200 ppm [3] | mortality at 200 ppm [4] | mortality at 200 ppm [5] | mortality at 200 ppm [6] | percent effect (mortality or growth inhibition) at 200 ppm [7] | percent effect (mortality or growth inhibition) at 200 ppm [8]

O=C(NC1CON(S(=O)(=O)C2CC2)C1)c1ccc(C2=NO[C@@](c3cc(Cl)c(Cl)c(Cl)c3)(C(F)(F)F)C2)cc1Cl (stereo partly drawn) [Compound A30, 2-chloro-N-(2-cyclopropylsulfonylisoxazolidin-4-yl)-4-[(5S)-5-(3,4,5-trichlorophenyl)-5-(trifluoromethyl)-4H-isoxazol-3-yl]benzamide]
≥ 80%: percent effect (mortality or growth inhibition) at 200 ppm [1] | percent control (mortality, anti-feedant effect or growth inhibition) at 12.5 ppm [2] | mortality at 200 ppm [3] | mortality at 200 ppm [4] | mortality at 200 ppm [5] | mortality at 200 ppm [6] | percent effect (mortality or growth inhibition) at 200 ppm [7]

Cc1cc(C2=NO[C@@](c3cc(Cl)c(F)c(Cl)c3)(C(F)(F)F)C2)ccc1C(=O)NC1CON(S(C)(=O)=O)C1 (stereo partly drawn) [Compound A1, 4-[(5S)-5-(3,5-dichloro-4-fluoro-phenyl)-5-(trifluoromethyl)-4H-isoxazol-3-yl]-2-methyl-N-(2-methylsulfonylisoxazolidin-4-yl)benzamide]
≥ 80%: percent effect (mortality or growth inhibition) at 200 ppm [1] | percent control (mortality, anti-feedant effect or growth inhibition) at 12.5 ppm [2] | mortality at 200 ppm [3] | mortality at 200 ppm [4] | mortality at 200 ppm [5] | mortality at 200 ppm [6] | percent effect (mortality or growth inhibition) at 200 ppm [7]

Cc1cc(C2=NO[C@@](c3cc(Br)cc(C(F)(F)F)c3)(C(F)(F)F)C2)ccc1C(=O)NC1CON(S(C)(=O)=O)C1 (stereo partly shown) [Compound A16]
≥ 80%: percent effect (mortality or growth inhibition) at 200 ppm [1] | percent effect (mortality, anti-feeding or growth inhibition) at 12.5 ppm ([2]; test rate 12.5 ppm, eggs, 6 days after infestation) | mortality at 200 ppm [3] | mortality at 200 ppm [4] | mortality at 200 ppm [5] | mortality at 200 ppm [6] | percent effect (mortality or growth inhibition) at 200 ppm [7]

CN(C)S(=O)(=O)N1CC(NC(=O)c2ccc(C3=NO[C@@](c4cc(Cl)c(F)c(Cl)c4)(C(F)(F)F)C3)cc2Cl)CO1 (stereo partly shown) [Compound A21]
≥ 80%: percent effect (mortality or growth inhibition) at 200 ppm [1] | percent control (mortality, anti-feedant effect or growth inhibition) at 12.5 ppm [2] | mortality at 200 ppm [3] | mortality at 200 ppm [4] | mortality at 200 ppm [5] | mortality at 200 ppm [6] | percent effect (mortality or growth inhibition) at 200 ppm [7]

Cc1cc(C2=NO[C@@](c3cc(Cl)cc(C(F)(F)F)c3)(C(F)(F)F)C2)ccc1C(=O)NC1CON(S(=O)(=O)N(C)C)C1 (stereo partly shown) [Compound A22]
≥ 80%: percent effect (mortality or growth inhibition) at 200 ppm [1] | percent control (mortality, anti-feedant effect or growth inhibition) at 12.5 ppm [2] | mortality at 200 ppm [3] | mortality at 200 ppm [4] | mortality at 200 ppm [5] | mortality at 200 ppm [6] | percent effect (mortality or growth inhibition) at 200 ppm [7]

O=C(NC1CON(S(=O)(=O)C2CC2)C1)c1ccc(C2=NO[C@@](c3cc(Cl)c(F)c(Cl)c3)(C(F)(F)F)C2)cc1Cl (stereo partly drawn) [Compound A24, 2-chloro-N-(2-cyclopropylsulfonylisoxazolidin-4-yl)-4-[(5S)-5-(3,5-dichloro-4-fluoro-phenyl)-5-(trifluoromethyl)-4H-isoxazol-3-yl]benzamide]
≥ 80%: percent effect (mortality or growth inhibition) at 200 ppm [1] | percent control (mortality, anti-feedant effect or growth inhibition) at 12.5 ppm [2] | mortality at 200 ppm [3] | mortality at 200 ppm [4] | mortality at 200 ppm [5] | mortality at 200 ppm [6] | percent effect (mortality or growth inhibition) at 200 ppm [7]
